Experimental data as given in patent publication US20210292330A1, “PYRROLIDINE-FUSED HETEROCYCLES” (Erasca, Inc., priority 2020, published 2021).

Molecular target: T1, KRAS 4B G12C protein (Homo sapiens, UniProt P01116, G12C)
T1 construct: This protein contained 188 amino acids in total, including an N-terminal 6-Histidine tag; made in house; host or cells: E. coli BL21
Experiment: In vitro covalent adduct formation (CAF) assay by LC-MS
Assay type: binding
Settings: compound 10 μM, protein 5 μM, 22° C., percentage of protein bound by the compound
Experimental: In vitro covalent adduct formation assay: Covalent adduct formation (CAF) reactions between Cys12 of the KRAS 4B G12C protein and some of the compounds of Table 1 were measured in vitro using liquid chromatography-mass spectrometry (LC-MS).
Recombinant Human KRAS 4B protein containing the G12C mutation was used in compound screening experiments. This protein contained 188 amino acids in total, including an N-terminal 6-Histidine tag, followed by a Tobacco Etch Virus (TEV) tag, followed by residues 1-169 of the native KRAS 4B sequence. The exact mass of the protein was 21,310 Da as determined by mass spectrometry. The full amino acid sequence is shown below:
The recombinant protein was expressed in E. coli BL21 cells and purified using affinity chromatography via a Ni-NTA column. […] Pure KRAS 4B G12C protein was diluted to a concentration of 5 μM in Tris Buffered Saline, pH 7.4. The compounds were dissolved in DMSO and added to the diluted protein to make a 10 μM concentration. The total DMSO concentration in the reaction was 4%. The reaction was mixed by pipetting and incubated at 22° C. for one hour. Aliquots of the reaction were taken over time and diluted 2:1 in 0.1% formic acid. The intact mass of the protein samples was measured by LC-MS using a QExactive+ mass spectrometer (Thermo Scientific). An amount of 500 ng total protein was injected onto a C8 reverse phase column, eluted with a seven-minute gradient of 30%-90% acetonitrile/0.1% formic acid, and analyzed for intact mass by the mass spectrometer. Adducts identified were confirmed to be within 1 Dalton of the expected mass, and the relative ratios of free:adduct protein were used to quantify the percentage of protein bound by the compound. CAF reactions were run in duplicate, with a typical variability of ±5%.

Structure (SMILES)	CAF (10 minutes/60 minutes) at 10 micromolar: 10 minutes	CAF (10 minutes/60 minutes) at 10 micromolar: 60 minutes
C=CC(=O)N1CCN(c2nc(OC[C@@H]3CCCN3C)nc3c2CN(Cc2c(C)cccc2OC(F)F)C3)C[C@@H]1CC#N [1-83]	97%	100%
C=CC(=O)N1CCN(c2nc(OC[C@@H]3CCCN3C)nc3c2CN(Cc2c(Cl)cccc2OC(F)F)C3)C[C@@H]1C [1-85]	0%/ 0%	0%/ 0%
C=C(F)C(=O)N1CCN(c2nc(OC[C@@H]3CCCN3C)nc3c2CN(Cc2cc(O)ccc2Cl)C3)C[C@@H]1CC#N [1-87]	97%	99%
C=CC(=O)N1CC2COCC(C1)N2c1nc(OC[C@@H]2CCCN2C)nc2c1CN(Cc1cc(OC)ccc1Cl)C2 [1-88]	0%/ 0%	0%/ 0%
C=CC(=O)N1CC2COCC(C1)N2c1nc(OC[C@@H]2CCCN2C)nc2c1CN(Cc1cc(O)ccc1Cl)C2 [1-90]	2%	12%
C=CC(=O)N1CCN(c2nc(OC[C@@H]3CCCN3C)nc3c2CN(Cc2c(Cl)cccc2OC(F)F)C3)[C@H](C)C1 [1-91]	0%/ 0%	0%/ 0%
C=CC(=O)N1CCN(c2nc(OC[C@@H]3CCCN3C)nc3c2CN(Cc2c(Cl)cccc2OC(F)F)C3)CC1 [1-94]	0%/ 0%	0%/ 0%
C=CC(=O)N1CCN(c2nc(OC[C@@H]3CCCO3)nc3c2CN(Cc2c(O)cccc2F)C3)C[C@@H]1CC#N [1-95]	21%	70%
C=CC(=O)N1CCN(c2nc(OC[C@@H]3CCCN3C)nc3c2CN(Cc2ccc(F)cc2Cl)C3)C[C@@H]1CC#N [1-96]	51%	93%
C=CC(=O)N1CCN(c2nc(OC[C@@H]3CCCN3C)nc3c2CN(C(C)c2c(F)cccc2OC)C3)C[C@@H]1CC#N (stereo partly drawn) [1-97]	95%	98%
C=CC(=O)N1CCN(c2nc(OC[C@@H]3CCCN3C)nc3c2CN(Cc2c(Cl)cccc2OC)C3)C[C@@H]1C(O)C(F)(F)F (stereo partly drawn) [1-98]	0%	1%
C=CC(=O)N1CCN(c2nc(OC[C@@H]3CCCN3C)nc3c2CN(Cc2c(Cl)cccc2OC(F)F)C3)[C@@H](C)C1 [1-99]	0%	6%
C=C(F)C(=O)N1CCN(c2nc(OC[C@@H]3CCCN3C)nc3c2CN(Cc2c(Cl)cccc2OC(F)F)C3)C[C@@H]1CC#N [1-104]	8%	48%
C=CC(=O)N1CCN(c2nc(OC[C@@H]3CCCN3C)nc3c2CN(Cc2c(Cl)cccc2OC(F)F)C3)C[C@H]1C [1-105]	0%/ 0%	0%/ 0%
C=CC(=O)N1CCN(c2nc(OC[C@@H]3CCCN3C)nc3c2CN(Cc2cccc4[nH]ncc24)C3)C[C@@H]1CC#N [1-108]	84%	97%
C=CC(=O)N1CCN(c2nc(OCCN3CCOCC3)nc3c2CN(Cc2cc(OC)ccc2C)C3)[C@@H](C)C1 [1-110]	0%/ 0%	0%/ 0%
C=CC(=O)N1CCN(c2nc(OC[C@@H]3CCCN3C)nc3c2CN(C(C)c2c(O)cccc2F)C3)C[C@@H]1CC#N (stereo partly drawn) [1-111]	87%	96%
C=CC(=O)N1CCN(c2nc(OC[C@@H]3CCCN3C)nc3c2CN(Cc2ncccc2Cl)C3)C[C@@H]1CC#N [1-113]	59%	89%
C=CC(=O)N1C2COCC1CN(c1nc(OC[C@@H]3CCCN3C)nc3c1CN(Cc1cc(OC)ccc1Cl)C3)C2 [1-114]	0%/ 0%	0%/ 0%
C=CC(=O)N1CCN(c2nc(OC[C@@H]3CCCN3C)nc3c2CN(Cc2cnccc2Cl)C3)C[C@@H]1CC#N [1-119]	66%	94%
C=CC(=O)N1CCN(c2nc(OCCN3CCOCC3)nc3c2CN(Cc2cc(O)ccc2C)C3)[C@@H](C)C1 [1-123]	0%	2%
C=CC(=O)N1C2COCC1CN(c1nc(OC[C@@H]3CCCN3C)nc3c1CN(Cc1cc(O)ccc1Cl)C3)C2 [1-124]	21%	67%
C=CC(=O)N1CCN(c2nc(OC[C@@H]3CCCN3C)nc3c2CN(Cc2c(Cl)cccc2OC)C3)C[C@@H]1CC(F)(F)F [1-125]	0%/ 0%	0%/ 0%

Second part, the compound after the results:

CAF (10 minutes/60 minutes) at 10 micromolar: 10 minutes	CAF (10 minutes/60 minutes) at 10 micromolar: 60 minutes	Structure (SMILES)
98%	99%	C=CC(=O)N1CCN(c2nc(OC[C@@H]3CCCN3C)nc3c2CN(C2CCc4cccc(Cl)c42)C3)C[C@@H]1CC#N (stereo partly drawn) [1-84]
59%	93%	C=CC(=O)N1CCN(c2nc(OC[C@@H]3CCCN3C)nc3c2CN(C2CCOc4ccccc42)C3)C[C@@H]1CC#N (stereo partly drawn) [1-86]
0%/ 0%	0%/ 0%	C=CC(=O)N1CCN(c2nc(OC[C@@H]3CCCN3C)nc3c2CN(Cc2c(Cl)cccc2OC)C3)C[C@@H]1CCO [1-92]
0%	5%	C=CC(=O)N1CCN(c2nc(OC[C@@H]3CCCN3C)nc3c2CN(C2CCc4ccccc42)C3)C[C@@H]1CC(F)(F)F (stereo partly drawn) [1-100]
0%	1%	C=CC(=O)N1CCN(c2nc(OC[C@@H]3CCCN3C)nc3c2CN(C2CCc4ccccc42)C3)C[C@@H]1CCO (stereo partly drawn) [1-101]
89%	96%	C=CC(=O)N1CCN(c2nc(OC[C@@H]3CCCN3C)nc3c2CN(Cc2ccccc2F)C3)C[C@@H]1CC#N [1-102]
59%	75%	C=CC(=O)N1CCN(c2nc(OC[C@@H]3CCCN3C)nc3c2CN(C2COc4ccccc42)C3)C[C@@H]1CC#N (stereo partly drawn) [1-106]
0%	3%	C=CC(=O)N1CCN(c2nc(OC[C@@H]3CCCN3C)nc3c2CN(Cc2c(Cl)cccc2OC)C3)C[C@@H]1CO [1-107]
48%	68%	C=C(F)C(=O)N1CCN(c2nc(OC[C@@H]3CCCN3C)nc3c2CN(C2CCc4ccccc42)C3)C[C@@H]1CC#N (stereo partly drawn) [1-109]
98%	99%	C=CC(=O)N1CCN(c2nc(OC[C@@H]3CCCN3C)nc3c2CN(Cc2c(F)cccc2Cl)C3)C[C@@H]1CC#N [1-112]
2%	17%	C=CC(=O)N1CCN(c2nc(OC[C@@H]3CCCN3C)nc3c2CN(C2CCc4ccccc42)C3)C[C@@H]1CO (stereo partly drawn) [1-116]
0%	4%	C=CC(=O)N1CCN(c2nc(OC[C@@H]3CCCN3C)nc3c2CN(C2CCc4ccccc42)C3)C[C@@H]1C(O)C(F)(F)F (stereo partly drawn) [1-117]
0%/ 0%	0%/ 0%	C=CC(=O)N1CCN(c2nc(OC[C@@H]3CCCN3C)nc3c2CN(C2CCc4ccccc42)C3)C[C@@H]1C(O)C(F)(F)F (stereo partly drawn) [1-118]
57%	74%	C=CC(=O)N1CCN(c2nc(OC[C@@H]3CCCN3C)nc3c2CN(C(C)c2ccccc2Cl)C3)C[C@@H]1CC#N (stereo partly drawn) [1-120]
0%	4%	C#CC1CN(c2nc(OC[C@@H]3CCCN3C)nc3c2CN(C2CCc4ccccc42)C3)CCN1C(=O)C=C (stereo partly drawn) [1-121]
21%	57%	C=CC(=O)N1CCN(c2nc(OC[C@@H]3CCC(=O)N3C)nc3c2CN(C2CCc4ccccc42)C3)C[C@@H]1CC#N (stereo partly drawn) [1-122]
